The results in this text go back to PubChem BioAssay (NCI).

Among the test systems are K-562 leukemia; HOP-92 NSCLC; NCI-H226 lung; HOP-62 NSCLC; SF-295 CNS; SW-620 colon; LOX IMVI melanoma; SK-OV-3 ovarian; RXF 393 renal; U251 CNS.
What all share (experiment): NCI tumour cell line growth inhibition, 48 h

“And” between values parts separate entries of the source, which are not always exact repeats. Equal values may be shown once.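 Values below derive from 48-hour exposures of cells grown in 96-well plates, with endpoints linearly interpolated between the two concentrations bracketing the appropriate inhibition level. The concentration for 50% growth inhibition is given as GI50. The concentration for full growth arrest is given as TGI.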 Where a SMILES comes first, the peptide text is derived from it. [ ]: non-standard residue; d: D form. The star is where a group is joined. ξ: configuration not given here. NMeN = CN[C@@H](CC(N)=O)C(=O)O; NMeV = CN[C@H](C(=O)O)C(C)C; ξNMeV = CNC(C(=O)O)C(C)C; Boc = CC(C)(C)OC(=O)*; ξNMeA = CNC(C)C(=O)O

`C=C1C(=O)[C@@]23CC1C(O)[C@@H](OC(C)=O)[C@@H]2C1(C)C(OC(C)=O)C[C@@H](OC(C)=O)C(C)(C)[C@@H]1C[C@H]3OC(C)=O` (stereo not given in full): the GI50 in the experiment with K-562 leukemia was 1.55 µM and 0.573 µg/mL; with HOP-92 NSCLC, 3.6 µM and 1.95 µg/mL; in the experiment on NCI-H226 lung, 3.11 µg/mL; with HOP-62 NSCLC it was 19.2 µg/mL; with SF-295 CNS, > 10 µM and 11.6 µg/mL; with SW-620 colon, 1.7 µM and 1.85 µg/mL. In addition, the GI50 is 1.82 µg/mL with LOX IMVI melanoma; > 10 µM and 16.5 µg/mL with SK-OV-3 ovarian; 362 nM and 1.8 µg/mL in the experiment with RXF 393 renal; > 10 µM and 13.9 µg/mL in the experiment with U251 CNS. In addition, the TGI is 3.71 µM and 2.86 µg/mL in the experiment with K-562 leukemia; > 10 µM and 3.84 µg/mL with HOP-92 NSCLC; > 10 µM and 7.24 µg/mL in the experiment with NCI-H226 lung; > 10 µM and 34.9 µg/mL in the experiment with HOP-62 NSCLC; > 10 µM and 25.6 µg/mL in the experiment on SF-295 CNS; 3.33 µM and 4.57 µg/mL with SW-620 colon. In addition, the TGI in the experiment on LOX IMVI melanoma is > 10 µM and 3.31 µg/mL; in the experiment on SK-OV-3 ovarian it was > 10 µM and 30.2 µg/mL; in the experiment with RXF 393 renal, 4.21 µM and 5.35 µg/mL; in the experiment with U251 CNS it was > 10 µM and 27 µg/mL.
In the case of `NC(=O)c1ccc2c(-c3ccnc(NCCCO)n3)c(-c3ccc(F)cc3)nn2c1`, the GI50 in the experiment with K-562 leukemia, in the experiment with HOP-92 NSCLC, with NCI-H226 lung, in the experiment on HOP-62 NSCLC, in the experiment on SF-295 CNS and in the experiment on SW-620 colon was more than 25 µM each time. Further, the GI50 with LOX IMVI melanoma is more than 25 µM; with SK-OV-3 ovarian, more than 24.2 µM; in the experiment with RXF 393 renal, 21.4 µM; with U251 CNS, more than 25 µM. Also, the TGI in the experiment with K-562 leukemia, with HOP-92 NSCLC, in the experiment with NCI-H226 lung, in the experiment with HOP-62 NSCLC, with SF-295 CNS and with SW-620 colon was more than 25 µM throughout. In addition, the TGI in the experiment on LOX IMVI melanoma, with SK-OV-3 ovarian, in the experiment with RXF 393 renal and with U251 CNS was more than 25 µM each time.
As to `COC(=O)C(C)N(C)C(=O)[C@H](CC(N)=O)N(C)C(=O)[C@@H]1CCCN1C(=O)[C@H](C(C)C)N(C)C(=O)C(C(C)C)N(C)C(=O)[C@@H](NC(=O)OC(C)(C)C)C(C)C` (stereo not given in full) (Boc-V[ξNMeV][NMeV]P[NMeN][ξNMeA]-OMe), the GI50 is more than 100 µM in the experiment with K-562 leukemia; more than 100 µM with HOP-92 NSCLC; more than 100 µM with NCI-H226 lung; more than 100 µM in the experiment on HOP-62 NSCLC; more than 100 µM with SF-295 CNS; 12.7 µM in the experiment with SW-620 colon. The GI50 is 13.5 µM in the experiment on LOX IMVI melanoma, more than 100 µM in the experiment with SK-OV-3 ovarian, 32.6 µM in the experiment on RXF 393 renal and more than 100 µM in the experiment with U251 CNS. For the same compound, the TGI in the experiment with K-562 leukemia was 50 µM and > 100 µM; in the experiment on HOP-92 NSCLC, more than 100 µM; in the experiment on NCI-H226 lung, more than 100 µM; with HOP-62 NSCLC, more than 100 µM; in the experiment on SF-295 CNS, more than 100 µM; with SW-620 colon, > 50 µM and 26.7 µM. The TGI was 50 µM and 27 µM with LOX IMVI melanoma; more than 100 µM with SK-OV-3 ovarian; > 50 µM and 96.8 µM in the experiment with RXF 393 renal; more than 100 µM with U251 CNS.
As to `COC(=O)c1c2c(c(C)[n+]([O-])c1C)C(=O)C=C(NCc1ccc(OC)cc1)C2=O`, the GI50 in the experiment on K-562 leukemia was 2.68 µM; with HOP-92 NSCLC, 2.35 µM; in the experiment with NCI-H226 lung, 2.66 µM; in the experiment with HOP-62 NSCLC it was 2.48 µM; in the experiment on SF-295 CNS, 1.36 µM; in the experiment with SW-620 colon, 1.08 µM. Further, the GI50 in the experiment on LOX IMVI melanoma is 0.911 µM; in the experiment on SK-OV-3 ovarian, 3.08 µM; in the experiment on RXF 393 renal, 2.02 µM; with U251 CNS, 2.05 µM. Also, the TGI with K-562 leukemia came out at 15.3 µM; in the experiment on HOP-92 NSCLC, 6.12 µM; in the experiment with NCI-H226 lung, 7.94 µM; in the experiment with HOP-62 NSCLC, 7.84 µM; with SF-295 CNS, 3.83 µM; in the experiment with SW-620 colon, 4.08 µM. Moreover, the TGI with LOX IMVI melanoma came out at 3.77 µM; with SK-OV-3 ovarian, 9.3 µM; in the experiment on RXF 393 renal it was 5.99 µM; with U251 CNS, 5.48 µM.
Consider `O=CN1N=C(c2ccc(Cl)cc2)CC1c1cccc(Nc2ccnc3cc(Cl)ccc23)c1` (stereo not given), for which the GI50 in the experiment on K-562 leukemia was 0.388 µM; with HOP-92 NSCLC, 1.45 µM; with NCI-H226 lung, 1.87 µM; in the experiment with HOP-62 NSCLC, 1.21 µM; with SF-295 CNS, 0.504 µM; with SW-620 colon, 1.61 µM. The GI50 with LOX IMVI melanoma was 1.29 µM; with SK-OV-3 ovarian, 2.9 µM; in the experiment with RXF 393 renal, 1.4 µM; with U251 CNS it was 2.47 µM. For the same compound, the TGI in the experiment with K-562 leukemia was 10.2 µM; in the experiment with HOP-92 NSCLC it was more than 100 µM; in the experiment with NCI-H226 lung it was 57.7 µM; with HOP-62 NSCLC, 16.1 µM; in the experiment with SF-295 CNS, 9.75 µM; in the experiment on SW-620 colon, 24.2 µM. The TGI was 3.42 µM in the experiment with LOX IMVI melanoma, more than 100 µM in the experiment with SK-OV-3 ovarian, 5.87 µM in the experiment with RXF 393 renal and 13.6 µM in the experiment with U251 CNS.
As to `O=C(CC12CC3CC(CC(C3)C1)C2)NCCOCCOCCOCCNC(=O)c1cc2c(o1)C(=O)c1ccccc1C2=O`, the GI50 was 1.32 µM in the experiment with K-562 leukemia; 2.45 µM with HOP-92 NSCLC; 1.75 µM in the experiment on NCI-H226 lung; 1.89 µM in the experiment with HOP-62 NSCLC; 1.48 µM in the experiment with SF-295 CNS; 1.68 µM in the experiment with SW-620 colon. Also, the GI50 in the experiment on LOX IMVI melanoma was 0.712 µM; with SK-OV-3 ovarian, 2.55 µM; in the experiment with RXF 393 renal, 1.55 µM; in the experiment on U251 CNS it was 1.53 µM. Further, the TGI was found to be 5.32 µM in the experiment with K-562 leukemia; 7.3 µM in the experiment on HOP-92 NSCLC; 4 µM with NCI-H226 lung; 3.33 µM in the experiment with HOP-62 NSCLC; 2.85 µM in the experiment with SF-295 CNS; 4.61 µM in the experiment with SW-620 colon. Besides, the TGI is 2.4 µM with LOX IMVI melanoma, 6.06 µM in the experiment with SK-OV-3 ovarian, 2.95 µM with RXF 393 renal and 3.09 µM in the experiment with U251 CNS.
Regarding `CC1=C2C[C@H]3[C@@H](CC=C4C[C@@H](O)CC[C@@]43C)[C@@H]2CC[C@]12O[C@@H]1C[C@H](C)CN[C@H]1[C@H]2C`, the GI50 was 9.4 µM and 15.9 µM in the experiment on K-562 leukemia; 21.6 µM with HOP-92 NSCLC; > 50 µM and 23.1 µM in the experiment with NCI-H226 lung; 17.8 µM and 24.5 µM in the experiment with HOP-62 NSCLC; 40.8 µM and 19 µM with SF-295 CNS; > 50 µM and 32.9 µM in the experiment on SW-620 colon. The GI50 in the experiment with LOX IMVI melanoma was 10.5 µM and 16.9 µM; with SK-OV-3 ovarian, 14.2 µM and 13.9 µM; in the experiment on RXF 393 renal, 6.01 µM; in the experiment on U251 CNS, 7.96 µM and 18.6 µM. In addition, the TGI in the experiment on K-562 leukemia was 34.7 µM and 40.2 µM; with HOP-92 NSCLC, 57.9 µM; in the experiment on NCI-H226 lung it was > 50 µM and 55.3 µM; with HOP-62 NSCLC, 50 µM and 68.6 µM; in the experiment with SF-295 CNS, 50 µM and 40.2 µM; in the experiment on SW-620 colon, more than 100 µM. Besides, the TGI was 31.8 µM and 33.5 µM in the experiment with LOX IMVI melanoma; 28.2 µM and 34.7 µM in the experiment with SK-OV-3 ovarian; 27.9 µM and 12.3 µM in the experiment on RXF 393 renal; 18.3 µM and 39.6 µM with U251 CNS.
